Test results reported in ChEMBL document CHEMBL3352754, “Bicyclic tetrapeptides as potent HDAC inhibitors: effect of aliphatic loop position and hydrophobicity on inhibitory activity” (Bioorg Med Chem, 2014).
Square brackets hold non-standard residues; d marks the D form. Peptide text beside a SMILES is read from it. * marks the point of attachment. Asu = N[C@@H](CCCCCC(=O)O)C(=O)O; NHOH = ON*

Legend:
[1] = Retention time by HPLC method; type: physicochemical
[2] = Selectivity index, ratio of IC50 for mouse HDAC6 to IC50 for human HDAC1
Mv1Lu = test: Inhibition of HDAC in mink Mv1Lu cells expressing human wild-type p21 promoter luciferase fusion plasmid assessed as drug level inducing 10-fold higher luciferase activity by p21 promoter assay relative to baseline; type: cell-based; details: Neovison vison
Histone deacetylase 1 = Histone deacetylase 1 (Homo sapiens, UniProt Q13547); test: Inhibition of human HDAC1 expressed in HEK293T cells assessed as aminomethyl coumarin release using Ac-KGLGK(Ac)-MCA) substrate after 30 mins by FLIPR method; type: cell-based, HEK-293T
Histone deacetylase 4 = Histone deacetylase 4 (Homo sapiens, UniProt P56524); test: Inhibition of human HDAC4 expressed in HEK293T cells assessed as aminomethyl coumarin release using Ac-KGLGK(Ac)-MCA) substrate after 30 mins by FLIPR method; type: cell-based; details: hek-293t
[3] = target: T1, Protein deacetylase HDAC6 (Mus musculus, UniProt Q9Z2V5); test: Inhibition of mouse HDAC6 expressed in HEK293T cells assessed as aminomethyl coumarin release using Ac-KGLGK(Ac)-MCA) substrate after 30 mins by FLIPR method; type: cell-based, HEK-293T
T1 sequence (Q9Z2V5 whole entry): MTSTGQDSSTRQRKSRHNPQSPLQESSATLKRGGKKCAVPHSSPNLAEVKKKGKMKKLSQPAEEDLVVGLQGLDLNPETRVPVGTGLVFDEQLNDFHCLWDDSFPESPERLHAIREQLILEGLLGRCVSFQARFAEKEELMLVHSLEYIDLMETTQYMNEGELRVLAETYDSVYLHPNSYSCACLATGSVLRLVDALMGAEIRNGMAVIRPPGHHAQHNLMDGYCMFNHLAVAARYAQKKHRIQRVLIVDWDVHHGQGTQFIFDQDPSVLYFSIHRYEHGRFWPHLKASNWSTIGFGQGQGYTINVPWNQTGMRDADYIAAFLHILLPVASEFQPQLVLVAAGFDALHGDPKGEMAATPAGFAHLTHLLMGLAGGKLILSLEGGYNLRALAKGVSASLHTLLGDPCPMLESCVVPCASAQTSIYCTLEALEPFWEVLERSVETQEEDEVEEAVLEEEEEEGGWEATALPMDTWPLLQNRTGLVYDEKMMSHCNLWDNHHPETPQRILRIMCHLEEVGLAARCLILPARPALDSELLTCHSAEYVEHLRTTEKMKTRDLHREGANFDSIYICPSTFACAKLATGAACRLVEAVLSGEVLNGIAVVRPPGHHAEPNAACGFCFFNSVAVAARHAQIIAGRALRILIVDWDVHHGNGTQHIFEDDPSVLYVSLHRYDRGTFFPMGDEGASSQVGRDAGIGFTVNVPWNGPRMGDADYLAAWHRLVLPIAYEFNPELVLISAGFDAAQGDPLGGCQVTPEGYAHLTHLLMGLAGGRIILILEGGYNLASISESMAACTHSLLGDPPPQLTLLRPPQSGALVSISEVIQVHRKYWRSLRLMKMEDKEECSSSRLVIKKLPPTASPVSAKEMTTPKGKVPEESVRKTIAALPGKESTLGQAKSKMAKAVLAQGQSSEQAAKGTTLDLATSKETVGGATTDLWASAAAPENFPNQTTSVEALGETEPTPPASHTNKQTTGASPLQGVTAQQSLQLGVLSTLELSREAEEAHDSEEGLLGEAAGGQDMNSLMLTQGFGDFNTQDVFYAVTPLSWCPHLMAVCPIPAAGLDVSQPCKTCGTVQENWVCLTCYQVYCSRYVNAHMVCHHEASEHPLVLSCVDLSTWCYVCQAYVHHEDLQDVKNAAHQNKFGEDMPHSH

Histone deacetylase 1, sequence (Q13547 whole entry): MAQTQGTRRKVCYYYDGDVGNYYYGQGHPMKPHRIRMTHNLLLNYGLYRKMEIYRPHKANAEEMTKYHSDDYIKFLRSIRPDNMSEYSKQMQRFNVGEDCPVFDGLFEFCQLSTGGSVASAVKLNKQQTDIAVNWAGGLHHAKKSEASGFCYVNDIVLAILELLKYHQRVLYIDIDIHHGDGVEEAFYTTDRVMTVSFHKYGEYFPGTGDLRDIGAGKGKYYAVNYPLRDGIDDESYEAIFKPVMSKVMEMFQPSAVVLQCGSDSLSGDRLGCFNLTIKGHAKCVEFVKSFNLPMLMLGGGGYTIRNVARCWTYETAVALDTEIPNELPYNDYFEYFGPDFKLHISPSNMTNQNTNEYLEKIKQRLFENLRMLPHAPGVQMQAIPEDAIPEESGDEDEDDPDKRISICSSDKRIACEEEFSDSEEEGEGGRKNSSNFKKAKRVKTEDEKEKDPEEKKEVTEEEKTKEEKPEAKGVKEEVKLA
Histone deacetylase 4, sequence (P56524 whole entry): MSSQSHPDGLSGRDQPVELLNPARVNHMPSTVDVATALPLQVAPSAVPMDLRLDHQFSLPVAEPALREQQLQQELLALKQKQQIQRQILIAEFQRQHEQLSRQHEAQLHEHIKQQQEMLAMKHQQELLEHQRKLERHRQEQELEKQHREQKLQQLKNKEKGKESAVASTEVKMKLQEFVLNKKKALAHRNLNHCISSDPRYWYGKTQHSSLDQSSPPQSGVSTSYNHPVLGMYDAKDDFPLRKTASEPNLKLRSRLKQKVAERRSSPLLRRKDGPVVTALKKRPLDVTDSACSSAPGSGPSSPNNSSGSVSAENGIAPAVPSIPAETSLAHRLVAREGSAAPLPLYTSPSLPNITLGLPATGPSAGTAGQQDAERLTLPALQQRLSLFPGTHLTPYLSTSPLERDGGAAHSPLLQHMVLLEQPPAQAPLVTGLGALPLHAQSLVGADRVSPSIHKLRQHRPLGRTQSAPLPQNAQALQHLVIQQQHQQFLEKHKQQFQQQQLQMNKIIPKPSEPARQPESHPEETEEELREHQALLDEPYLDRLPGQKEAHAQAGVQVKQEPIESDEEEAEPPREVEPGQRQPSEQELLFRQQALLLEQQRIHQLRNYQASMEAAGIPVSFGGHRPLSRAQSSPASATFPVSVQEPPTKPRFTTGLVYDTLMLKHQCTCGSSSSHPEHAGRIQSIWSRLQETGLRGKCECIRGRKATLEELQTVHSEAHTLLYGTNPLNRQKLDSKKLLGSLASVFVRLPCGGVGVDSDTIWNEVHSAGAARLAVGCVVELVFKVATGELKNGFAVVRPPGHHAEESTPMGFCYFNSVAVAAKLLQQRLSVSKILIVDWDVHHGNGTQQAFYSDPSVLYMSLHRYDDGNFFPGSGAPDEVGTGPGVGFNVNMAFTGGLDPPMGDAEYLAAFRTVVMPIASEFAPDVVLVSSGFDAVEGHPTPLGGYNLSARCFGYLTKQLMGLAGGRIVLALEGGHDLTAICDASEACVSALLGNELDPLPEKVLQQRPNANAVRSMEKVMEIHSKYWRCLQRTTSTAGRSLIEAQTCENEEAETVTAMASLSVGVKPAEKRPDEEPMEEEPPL

SMILES | Retention_time [1] [min] | Ratio IC50 [2] | IC50 (Histone deacetylase 1) [nM] | IC50 (Histone deacetylase 4) [nM] | IC50 [3] [nM] | EC1000 (Mv1Lu) [nM]
CCCCC[C@@H]1NC(=O)[C@H]2CCCN2C(=O)[C@H](CCCCCC(=O)NO)NC(=O)[C@@H](CCCCC)NC1=O | 7.67 | 13.3 | 43 | 43 | 570 | 80
O=C(CCCCC[C@@H]1NC(=O)[C@H]2CCCN2C(=O)[C@@H]2CCCCCCCCCC[C@@H](NC1=O)C(=O)N2)NO | 6.03 | 45.1 |  |  | 410 | 7.2
O=C(CCCCC[C@@H]1NC(=O)[C@H]2CCCCCCCCCC[C@H](NC(=O)[C@H]3CCCN3C1=O)C(=O)N2)NO | 7.06 | 19.6 | 25 | 31 | 490 | 58
CCCCC[C@@H]1NC(=O)[C@@H](CCCCC)NC(=O)[C@H](CCCCCC(=O)NO)NC(=O)[C@H]2CCCN2C1=O | 7.51 | 13.6 |  |  | 340 | 13

These reach a lower IC50 [3]. Values come first.

Retention_time [1] [min] | Ratio IC50 [2] | IC50 (Histone deacetylase 1) [nM] | IC50 (Histone deacetylase 4) [nM] | IC50 [3] [nM] | SMILES | EC1000 (Mv1Lu) [nM]
4.31 | 7.7 | 31 | 41 | 240 | O=C(CCCCC[C@@H]1NC(=O)[C@H]2CCCN2C(=O)[C@@H]2CCOCCCCOCC[C@@H](NC1=O)C(=O)N2)NO | 2200
5.8 | 9.2 | 25 | 26 | 230 | O=C(CCCCC[C@@H]1NC(=O)[C@H]2CCCN2C(=O)[C@@H]2CCCCCCCCCC[C@H](NC1=O)C(=O)N2)NO | 510
6.55 | 3.7 | 37 | 15 | 140 | CCCCC[C@@H]1NC(=O)[C@H](CCCCCC(=O)NO)NC(=O)[C@H]2CCCN2C(=O)[C@H](CCCCC)NC1=O | 80
 | 32.5 | 0.4 | 3 | 13 | CC[C@H](C)[C@@H]1NC(=O)[C@@H](Cc2ccc(OC)cc2)NC(=O)[C@H](CCCCCC(=O)NO)NC(=O)[C@H]2CCCN2C1=O (cyclo([Asu](NHOH)[dY](Me)I[dP])) | 22
